In patent US10174067B2, “Type of cytidine derivative and application thereof” (priority 2014, dated 2019):
Marks after values point to notes of the source that are not given here.

Columns and labels:
[1] = system: ICR mice; assay: in vivo; conditions: female ICR mice; single-dose ip
Method in brief: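 MTD, the dose without mortality, body-weight loss over 10% from Day 0 or marked adverse signs, was found by stepwise up/down single intraperitoneal dosing of female SPF ICR mice. Vehicle: ethanol:Cremophor EL:saline 5:5:90. Animals weighed daily and clinically checked twice daily for up to 14 days.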

[2] = system: HCT-116 colon cancer xenografts; assay: Tumor growth inhibition of HCT-116 colon cancer xenografts in tumor-bearing nude mice (tumor volume, TGI %, RTV, T/C %); type: in vivo, Balb/c Nude mice; conditions: G10-G16 groups, single IP 400 mg/kg
Method in brief: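 Tumors in HCT-116-inoculated nude mice were sized three times weekly by diameter, with volume V=3/4π(D/2)^3. Significance set at P<0.05.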

[3] = Method in brief: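 Test compounds formulated in ethanol:Cremophor EL:saline (5:5:90), vehicle alone as control, in HCT-116 subcutaneous xenografts in female Balb/c nudes (6/group, start 60–150 mm^3). Weight measured three times weekly, tumour weight at end; unpaired t-test on Mean±SEM data.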
[4] = Day 1, G10-G16 groups, single IP 400 mg/kg, Mean±SEM
[5] = Day 2, G10-G16 groups, single IP 400 mg/kg, Mean±SEM
[6] = Day 4, G10-G16 groups, single IP 400 mg/kg, Mean±SEM
[7] = Day 7, G10-G16 groups, single IP 400 mg/kg, Mean±SEM
[8] = Day 9, G10-G16 groups, single IP 400 mg/kg, Mean±SEM
[9] = Day 11, G10-G16 groups, single IP 400 mg/kg, Mean±SEM
[10] = Day 14, G10-G16 groups, single IP 400 mg/kg, Mean±SEM
[11] = Day 16, G10-G16 groups, single IP 400 mg/kg, Mean±SEM
[12] = Day 18, G10-G16 groups, single IP 400 mg/kg, Mean±SEM
[13] = Day 21, G10-G16 groups, single IP 400 mg/kg, Mean±SEM
[14] = Day 23, G10-G16 groups, single IP 400 mg/kg, Mean±SEM
[15] = Day 25, G10-G16 groups, single IP 400 mg/kg, Mean±SEM
[16] = Day 28, G10-G16 groups, single IP 400 mg/kg, Mean±SEM
[17] = Day 30, G10-G16 groups, single IP 400 mg/kg, Mean±SEM

CCCCOC(=O)Nc1nc(=O)n(C2OC(COC(=O)COc3nc(Cl)c(Cl)cc3Cl)C(O)C2(F)F)cc1-c1cn(Cc2ccccc2)nn1 (centres unmarked) [Compound G15]
dose that could be tolerated (maximum tolerated dose, MTD) [1]: 400 mg/kg
Day 0 (RTV) ([2]; Day 0): 1.00
Tumor volume, Day 0 ([2]; Day 0, Mean±SEM): 80.27 ± 13.25 mm^3
Day 1 (TGI %) ([2]; Day 1): 35.29%
Day 1 (RTV) ([2]; Day 1, Mean±SEM): 1.44 ± 0.12
Tumor volume, Day 1 ([2]; Day 1, Mean±SEM): 116.82 ± 21* mm^3
Day 2 (TGI %) ([2]; Day 2): 44.25%
Day 2 (RTV) ([2]; Day 2, Mean±SEM): 1.50 ± 0.15
Tumor volume, Day 2 ([2]; Day 2, Mean±SEM): 123.70 ± 25.72* mm^3
Day 4 (TGI %) ([2]; Day 4): 67.87%
Day 4 (RTV) ([2]; Day 4, Mean±SEM): 1.11 ± 0.17
Tumor volume, Day 4 ([2]; Day 4, Mean±SEM): 95.41 ± 22.57** mm^3
Day 7 (TGI %) ([2]; Day 7): 86.92%
Day 7 (RTV) ([2]; Day 7, Mean±SEM): 0.88 ± 0.12
Tumor volume, Day 7 ([2]; Day 7, Mean±SEM): 56.58 ± 8.87** mm^3
Day 9 (TGI %) ([2]; Day 9): 91.92%
Day 9 (RTV) ([2]; Day 9, Mean±SEM): 0.77 ± 0.23
Tumor volume, Day 9 ([2]; Day 9, Mean±SEM): 47.71 ± 0.00** mm^3
Day 11 (TGI %) ([2]; Day 11): 92.19%
Day 11 (RTV) ([2]; Day 11, Mean±SEM): 1.19 ± 0.19
Tumor volume, Day 11 ([2]; Day 11, Mean±SEM): 76.28 ± 10.83** mm^3
Day 14 (TGI %) ([2]; Day 14): 86.10%
Day 14 (RTV) ([2]; Day 14, Mean±SEM): 3.15 ± 0.61
Tumor volume, Day 14 ([2]; Day 14, Mean±SEM): 200.24 ± 20.65** mm^3
Day 16 (TGI %) ([2]; Day 16): 77.07%
Day 16 (RTV) ([2]; Day 16, Mean±SEM): 6.58 ± 1.42
Tumor volume, Day 16 ([2]; Day 16, Mean±SEM): 415.31 ± 33.61** mm^3
Day 18 (TGI %) ([2]; Day 18): 71.73%
Day 18 (RTV) ([2]; Day 18, Mean±SEM): 8.97 ± 2.01
Tumor volume, Day 18 ([2]; Day 18, Mean±SEM): 564.86 ± 41.27** mm^3
Day 21 (TGI %) ([2]; Day 21): 60.58%
Day 21 (RTV) ([2]; Day 21, Mean±SEM): 15.35 ± 3.61
Tumor volume, Day 21 ([2]; Day 21, Mean±SEM): 963.72 ± 58.94 mm^3
Day 23 (TGI %) ([2]; Day 23): 59.19%
Day 23 (RTV) ([2]; Day 23, Mean±SEM): 15.35 ± 3.61
Tumor volume, Day 23 ([2]; Day 23, Mean±SEM): 963.72 ± 58.94 mm^3
Day 25 (TGI %) ([2]; Day 25): 57.93%
Day 25 (RTV) ([2]; Day 25, Mean±SEM): 17.32 ± 4.11
Tumor volume, Day 25 ([2]; Day 25, Mean±SEM): 1086.50 ± 63.85 mm^3
Day 28 (TGI %) ([2]; Day 28): 49.34%
Day 28 (RTV) ([2]; Day 28, Mean±SEM): 21.75 ± 5.25
Tumor volume, Day 28 ([2]; Day 28, Mean±SEM): 1362.50 ± 74.25 mm^3
Day 30 (TGI %) ([2]; Day 30): 37.03%
Day 30 (RTV) ([2]; Day 30, Mean±SEM): 28.66 ± 8.38
Tumor volume, Day 30 ([2]; Day 30, Mean±SEM): 1767.15 ± 0.00 mm^3
Weight change rate, Day 0 ([3]; Day 0, G10-G16 groups, single IP 400 mg/kg): 0.00%
Weight of mice, Day 0 ([3]; Day 0, G10-G16 groups, single IP 400 mg/kg, Mean±SEM): 20.15 ± 0.29 g
Weight change rate, Day 1 [3, 4]: −1.20 ± 1.02%
Weight of mice, Day 1 [3, 4]: 19.92 ± 0.44 g
Weight change rate, Day 2 [3, 5]: −11.24 ± 1.52 %
Weight of mice, Day 2 [3, 5]: 17.9 ± 0.52 g
Weight change rate, Day 4 [3, 6]: −18.30 ± 3.09 %
Weight of mice, Day 4 [3, 6]: 16.48 ± 0.77 g
Weight change rate, Day 7 [3, 7]: −1.96 ± 0.54%
Weight of mice, Day 7 [3, 7]: 20.10 ± 0.60 g
Weight change rate, Day 9 [3, 8]: 2.49 ± 2.01%
Weight of mice, Day 9 [3, 8]: 21.00 ± 0.10 g
Weight change rate, Day 11 [3, 9]: 4.46 ± 3.04%
Weight of mice, Day 11 [3, 9]: 21.40 ± 0.10 g
Weight change rate, Day 14 [3, 10]: 7.83 ± 1.17 %
Weight of mice, Day 14 [3, 10]: 22.1 ± 0.30 g
Weight change rate, Day 16 [3, 11]: 11.00 ± 1.00 %
Weight of mice, Day 16 [3, 11]: 22.75 ± 0.35 g
Weight change rate, Day 18 [3, 12]: 13.18 ± 0.32 %
Weight of mice, Day 18 [3, 12]: 23.20 ± 0.50 g
Weight change rate, Day 21 [3, 13]: 9.29 ± 0.71 %
Weight of mice, Day 21 [3, 13]: 22.40 ± 0.40 g
Day 22 Mortality ([3]; Day 22, single IP dose (mg/kg)): 67%
Weight change rate, Day 23 [3, 14]: 8.06 ± 0.44 %
Weight of mice, Day 23 [3, 14]: 22.15 ± 0.45 g
Weight change rate, Day 25 [3, 15]: 9.26 ± 0.26%
Weight of mice, Day 25 [3, 15]: 22.4 ± 0.60 g
Weight change rate, Day 28 [3, 16]: 7.08 ± 0.42%
Weight of mice, Day 28 [3, 16]: 21.95 ± 0.45 g
Weight change rate, Day 30 [3, 17]: 9.20 ± 2.70%
Weight of mice, Day 30 [3, 17]: 22.40 ± 1.10 g
clinical symptoms ([3]; after single IP dose, compared with model control group): no significant differences in clinical symptoms
